According to patent US8404678B2, “Cytotoxic agents comprising new tomaymycin derivatives and their therapeutic use” (priority 2007, dated 2013):
Read-outs that look alike come from different tables or passages of the source.

Assays:
Type in all cases: cell-based
Ramos cells = assay: In vitro viability assay (WST-8)
Description: (§1) Samples of free tomaymycin derivative or tomaymycin derivative conjugate are added to a 96-well flat bottomed tissue culture plate and titrated using serial dilutions ranging from 1×10^−12 M to 3×10^−7 M. Antigen positive tumor cells or antigen negative tumor cells are added to the wells in such a way that there are triplicate samples for each drug concentration for each cell line. […]
[…] The absorbance in each well of the plates is then measured using the Molecular Devices plate reader at 450 nm. Surviving fraction of cells at each concentration of tomaymycin derivative or conjugate are plotted.
(§2) The cytotoxicity of the compounds and their specificity vs. the conjugates of the invention against MOLT-4, BJAB, HL60/QC, HL60/ATCC and Ramos cell lines were tested. Results are illustrated in FIGS. 1, 2, 3, 6 and 8.

HL60/ATCC cells = assay: In vitro viability assay (WST-8)
Description: as §1
(§3) At the end of the incubation period, 20 μl of the tetrazolium reagent WST-8 (2-(2-methoxy-nitrophenyl)-3-(4-nitrophenyl)-5-(2,4-disulfophenyl)-2-tetrazolium, monosodium salt) is added to each well, and the plates are returned to the incubator for 2 hours. The absorbance in each well of the plates is then measured using the Molecular Devices plate reader at 450 nm. Surviving fraction of cells at each concentration of tomaymycin derivative or conjugate are plotted.
as §2

HL60/QC cells = assay: In vitro viability assay (WST-8); conditions: Homo sapiens
Description: (§4) Samples of free tomaymycin derivative or tomaymycin derivative conjugate are added to a 96-well flat bottomed tissue culture plate and titrated using serial dilutions ranging from 1×10^−12 M to 3×10^−7 M. Antigen positive tumor cells or antigen negative tumor cells are added to the wells in such a way that there are triplicate samples for each drug concentration for each cell line. The plates are incubated at 37° C. in an atmosphere of 5% CO2 for 4 days.
as §3, §2

MDA-MB-231 cells = assay: Continuous exposure clonogenic assay; conditions: Homo sapiens
Description: (§5) MDA-MB-231 cells were plated at 3000 cells per well in two separate 6-well plates; PC-3 and SK-MEL-28 cells were plated at 2000 cells per well in 2 separate plates. The test article(s) were added to give final concentrations of 0, 5×10^−13, 5×10^−12, 5×10^−11, 5×10^−10 and 5×10^−9 M per well (or similar dosage range) to each plate. For example, when cells are plated in 1 mL, and 1 mL of a 2× concentration of the test compound or conjugate is added to the appropriate wells to give the final desired concentration in 2 mls. The final solution of the test article was made in the same medium as the cell line; therefore, different dilutions of conjugate had to be made for each different cell line. The plates are placed in an incubator at 37° C. in 5% CO2. Cell growth is monitored and when cells in the “0” (control) wells had formed colonies but were not confluent, usually 7 days for these cell lines, the supernatant was removed by aspiration. The cells were washed once with PBS (Phosphate Buffer Solution) and the supernatant aspirated. To each well, 0.5 ml per well of a 0.1% crystal violet/10% formalin/PBS was added. The plates were incubated at room temperature for 10-15 minutes. The supernatant was aspirated and the wells washed 3 times with distilled H2O, and then air dried. Colonies in each well were counted and the number of colonies in each dosed well was divided by the number of colonies in the “0” well to give the surviving fraction. IC50 values were then calculated from the data.

PC-3 cells = assay: Continuous exposure clonogenic assay; conditions: Homo sapiens
Description: as §5

SK-MEL-28 cells = assay: Continuous exposure clonogenic assay; conditions: Homo sapiens
Description: as §5

various cell-lines = assay: In vitro cytotoxicity, cell line not named; conditions: FIG. 3; IGP08-OMe compared with IGP08
Description: as §4
as §3, with “Surviving fraction of cells at each concentration of tomaymycin derivative or conjugate are plotted.” left out
MDA-MB-231 cells were plated at 3000 cells per well in two separate 6-well plates; PC-3 and SK-MEL-28 cells were plated at 2000 cells per well in 2 separate plates. […] Cell growth is monitored and when cells in the “0” (control) wells had formed colonies but were not confluent, usually 7 days for these cell lines, the supernatant was removed by aspiration. […] Colonies in each well were counted and the number of colonies in each dosed well was divided by the number of colonies in the “0” well to give the surviving fraction. IC50 values were then calculated from the data.

[1] = Homo sapiens, Ramos, read-out: In vitro data (IC50) Ramos
[2] = Homo sapiens, HL-60, read-out: In vitro data (IC50) HL60/ATCC
[3] = HL-60, read-out: In vitro data (IC50) HL60/QC
[4] = MDA-MB-231, read-out: In vitro data (IC50) MDA-MB-231
[5] = PC-3, read-out: In vitro data (IC50) PC-3
[6] = SK-MEL-28, read-out: In vitro data (IC50) SK-MEL-28

`C=C1C[C@H]2C=Nc3cc(OCc4cc(COc5cc6c(cc5OC)C(=O)N5C/C(=C/C)C[C@H]5C=N6)cc(OCC(=O)OC)c4)c(OC)cc3C(=O)N2C1` showed an IC50 (Ramos cells; [1]) of 0.0014 nM and an IC50 (HL60/ATCC cells; [2]) of 0.012 nM.

Molecule `C/C=C1\C[C@H]2C=Nc3cc(OCc4cc(COc5cc6c(cc5OC)C(=O)N5C/C(=C/C)C[C@H]5C=N6)cc(OCCCC(=O)O)c4)c(OC)cc3C(=O)N2C1` has an IC50 (Ramos cells; [1]) of 0.58 nM, an IC50 (HL60/QC cells; [3]) of 1.2 nM and an IC50 (HL60/ATCC cells; [2]) of 2 nM.

`C/C=C1\C[C@H]2C=Nc3cc(OCc4cc(C#CCCCC(=O)OC)cc(COc5cc6c(cc5OC)C(=O)N5C/C(=C/C)C[C@H]5C=N6)c4)c(OC)cc3C(=O)N2C1` was tested, and the IC50 (Ramos cells; [1]) was 0.0012 nM, the IC50 (HL60/ATCC cells; [2]) was 0.0022 nM and the IC50 (MDA-MB-231 cells; [4]) was 0.012 nM. It also gave an IC50 (PC-3 cells; [5]) of 0.027 nM and an IC50 (SK-MEL-28 cells; [6]) of 0.015 nM.

Work on `C/C=C1\C[C@H]2C=Nc3cc(OCc4cc(COc5cc6c(cc5OC)C(=O)N5C/C(=C/C)C[C@H]5C=N6)cc(OCCOCCOCCOCCC(=O)OC)c4)c(OC)cc3C(=O)N2C1` yielded an IC50 (HL60/ATCC cells; [2]) of 0.012 nM, an IC50 (MDA-MB-231 cells; [4]) of 0.016 nM and an IC50 (PC-3 cells; [5]) of 0.0074 nM. The IC50 (SK-MEL-28 cells; [6]) was 0.0097 nM.

For `C/C=C1\C[C@H]2C=Nc3cc(OCc4cc(OCCOCCOCCOCCC(=O)OC)cc(COc5cc6c(cc5OC)C(=O)N5C/C(=C/C)C[C@H]5C=N6)n4)c(OC)cc3C(=O)N2C1`, the IC50 (MDA-MB-231 cells; [4]) was 0.008 nM, the IC50 (PC-3 cells; [5]) was 0.5 nM and the IC50 (SK-MEL-28 cells; [6]) was 0.071 nM.

`C/C=C1\C[C@H]2C=Nc3cc(OCc4cc(OCCCC(=O)OC)cc(COc5cc6c(cc5OC)C(=O)N5C/C(=C/C)C[C@H]5C=N6)n4)c(OC)cc3C(=O)N2C1` gave an IC50 (MDA-MB-231 cells; [4]) of 0.0017 nM, an IC50 (PC-3 cells; [5]) of 0.011 nM and an IC50 (SK-MEL-28 cells; [6]) of 0.0087 nM.

Molecule `C/C=C1\C[C@H]2C=Nc3cc(OCc4cc(COc5cc6c(cc5OC)C(=O)N5C/C(=C/C)C[C@H]5C=N6)cc(OCCN(C)C(=O)CCC(=O)OC)c4)c(OC)cc3C(=O)N2C1` has an IC50 (MDA-MB-231 cells; [4]) of 0.009 nM, an IC50 (PC-3 cells; [5]) of 0.5 nM and an IC50 (SK-MEL-28 cells; [6]) of 0.09 nM.

`C=C1C[C@H]2C=Nc3cc(OCc4cc(CCC(=O)OC)cc(COc5cc6c(cc5OC)C(=O)N5CC(=C)C[C@H]5C=N6)c4)c(OC)cc3C(=O)N2C1` [compound 8] showed an IC50 (Ramos cells; Homo sapiens, unconjugated tomaymicine derivatives, Ramos, read-out: In vitro data (IC50) Ramos) of 0.008 nM, an IC50 (HL60/QC cells; HL-60, unconjugated tomaymicine derivatives, HL60/QC, read-out: In vitro data (IC50) HL60/QC) of 0.0011 nM and an IC50 (HL60/ATCC cells; Homo sapiens, HL-60, unconjugated tomaymicine derivatives, HL60/ATCC, read-out: In vitro data (IC50) HL60/ATCC) of 0.004 nM. It also gave an IC50 (MDA-MB-231 cells; unconjugated tomaymicine derivatives, MDA-MB-231, read-out: In vitro data (IC50) MDA-MB-231) of 0.017 nM, an IC50 (PC-3 cells; unconjugated tomaymicine derivatives, PC-3, read-out: In vitro data (IC50) PC-3) of 0.027 nM and an IC50 (SK-MEL-28 cells; unconjugated tomaymicine derivatives, SK-MEL-28, read-out: In vitro data (IC50) SK-MEL-28) of 0.01 nM. The “In vitro cytotoxicity potency, ester versus acid” value (various cell-lines) was “higher potency”.

With `C=C1C[C@H]2C=Nc3cc(OCc4cc(CCC(=O)O)cc(COc5cc6c(cc5OC)C(=O)N5CC(=C)C[C@H]5C=N6)c4)c(OC)cc3C(=O)N2C1` [compound 9, 4-(3,5-Bis-[(S)-2-methylidene-7-methoxy-1,2,3,11a-tetrahydro-pyrrolo[2,1c][1,4]benzodiazepin-5-one-8-yloxymethyl]-phenyl)-propanoic acid] the IC50 (Ramos cells; [1]) was 2.7 nM, the IC50 (HL60/QC cells; [3]) was 3.5 nM and the IC50 (HL60/ATCC cells; [2]) was 2.6 nM.

For “huMy9-6—3-(2-{2-[2-(3,5-Bis-[(S)-2-eth-(E)-ylidene-7-methoxy-1,2,3,11a-tetrahydro-pyrrolo[2,1c][1,4]benzodiazepin-5-one-8-yloxymethyl]-phenoxy)-ethoxy]-ethoxy}-ethoxy)-propionyl conjugate [ex. 14]”, the IC50 (Ramos cells; conjugate, Ramos (Ag−) @ 2000 cells/well, 5 day exposure, WST 4.5 hours, FIG. 23, read-out: ~IC50 Ramos cells) was under 10 nM and the IC50 (HL60/ATCC cells; conjugate, HL60/ATCC (Ag+) @ 5000 cells/well, 7 day exposure, WST 2 hours, FIG. 23, read-out: ~IC50 HL60/ATCC cells) was about 0.023 nM.
